Laboratory results as given in patent US10968210B2, “Diamino-alkylamino-linked arylsulfonamide compounds with selective activity in voltage-gated sodium channels” (Merck Sharp & Dohme Corp., priority 2016, dated 2021).

Key:
[1] = target: T1, human Nav 1.5 channels stably expressed in HEK 293 cells (Homo sapiens, UniProt Q14524); assay: IonWorks Quattro automated patch-clamp, inactivated state block of Nav 1.5 (reported as ratio to Nav 1.7 potency); type: cell-based; conditions: selectivity for Nav 1.7 over Nav 1.5, both by IonWorks
T1 construct: expressed in transfected cells; host or cells: HEK 293
T1 sequence (Q14524 whole entry): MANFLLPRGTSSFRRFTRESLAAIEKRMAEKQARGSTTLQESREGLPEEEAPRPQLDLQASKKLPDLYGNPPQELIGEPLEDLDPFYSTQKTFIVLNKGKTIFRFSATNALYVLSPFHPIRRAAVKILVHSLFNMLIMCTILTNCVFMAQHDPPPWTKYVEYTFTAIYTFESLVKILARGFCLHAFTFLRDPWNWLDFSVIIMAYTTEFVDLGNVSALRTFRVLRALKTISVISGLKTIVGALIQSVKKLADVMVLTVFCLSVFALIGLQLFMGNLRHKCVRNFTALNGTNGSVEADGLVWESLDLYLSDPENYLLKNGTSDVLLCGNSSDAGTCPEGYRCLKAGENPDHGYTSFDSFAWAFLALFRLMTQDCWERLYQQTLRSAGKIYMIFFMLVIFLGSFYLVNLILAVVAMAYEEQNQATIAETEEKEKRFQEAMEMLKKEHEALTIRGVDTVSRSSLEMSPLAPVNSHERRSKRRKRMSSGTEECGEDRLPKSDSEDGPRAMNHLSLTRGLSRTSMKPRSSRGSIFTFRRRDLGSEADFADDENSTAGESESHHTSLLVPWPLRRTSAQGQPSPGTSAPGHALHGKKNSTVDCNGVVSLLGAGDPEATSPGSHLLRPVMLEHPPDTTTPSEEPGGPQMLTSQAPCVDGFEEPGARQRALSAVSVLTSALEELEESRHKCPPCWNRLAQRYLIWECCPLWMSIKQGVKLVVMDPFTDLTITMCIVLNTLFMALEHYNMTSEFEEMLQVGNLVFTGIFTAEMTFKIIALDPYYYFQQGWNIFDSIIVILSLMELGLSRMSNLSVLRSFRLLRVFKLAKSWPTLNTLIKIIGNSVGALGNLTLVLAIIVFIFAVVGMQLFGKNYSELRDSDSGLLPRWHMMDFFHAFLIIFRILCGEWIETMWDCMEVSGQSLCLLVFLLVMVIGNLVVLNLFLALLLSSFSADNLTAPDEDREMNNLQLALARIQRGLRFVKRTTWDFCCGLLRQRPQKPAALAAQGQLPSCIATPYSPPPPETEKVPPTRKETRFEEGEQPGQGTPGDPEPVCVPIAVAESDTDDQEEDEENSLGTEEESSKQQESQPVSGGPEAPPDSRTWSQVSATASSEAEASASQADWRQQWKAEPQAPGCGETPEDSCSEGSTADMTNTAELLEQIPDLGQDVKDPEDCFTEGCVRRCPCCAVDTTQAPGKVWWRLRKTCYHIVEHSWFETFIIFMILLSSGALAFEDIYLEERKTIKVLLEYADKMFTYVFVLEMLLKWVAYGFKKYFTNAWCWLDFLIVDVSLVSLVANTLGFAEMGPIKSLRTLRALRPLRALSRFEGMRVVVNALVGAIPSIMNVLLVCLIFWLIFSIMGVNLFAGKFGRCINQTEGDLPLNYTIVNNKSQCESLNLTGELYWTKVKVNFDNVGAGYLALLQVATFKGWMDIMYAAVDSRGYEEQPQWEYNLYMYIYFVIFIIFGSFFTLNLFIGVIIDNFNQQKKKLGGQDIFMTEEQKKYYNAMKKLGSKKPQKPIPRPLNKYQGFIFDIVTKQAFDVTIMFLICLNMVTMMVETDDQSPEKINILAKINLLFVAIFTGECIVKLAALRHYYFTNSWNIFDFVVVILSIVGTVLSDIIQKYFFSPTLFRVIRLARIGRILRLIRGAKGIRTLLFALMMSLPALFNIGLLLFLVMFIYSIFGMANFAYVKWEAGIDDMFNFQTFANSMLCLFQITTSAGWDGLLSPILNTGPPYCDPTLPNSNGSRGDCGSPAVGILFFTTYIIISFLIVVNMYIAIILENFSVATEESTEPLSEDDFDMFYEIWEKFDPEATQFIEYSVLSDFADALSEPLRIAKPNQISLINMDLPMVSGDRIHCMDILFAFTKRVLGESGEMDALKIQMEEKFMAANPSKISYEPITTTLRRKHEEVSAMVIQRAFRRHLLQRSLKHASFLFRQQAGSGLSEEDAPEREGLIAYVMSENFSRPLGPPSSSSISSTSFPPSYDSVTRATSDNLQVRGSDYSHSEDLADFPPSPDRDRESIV
Description: (§1) IonWorks® Experimental Procedure
(§2) Compounds were tested on human Nav 1.7 and Nav 1.5 channels stably expressed in HEK 293 cells. Sodium current measurements on IonWorks Quattro: An automated patch-clamp assay on the IonWorks Quattro platform (Molecular Devices) was used to measure state-dependent inhibition of human Nav 1.7 and Nav 1.5 channels. Cells were sealed on a planar substrate using the Population Patch Plate (PPC) technology. Electrical access was obtained using both nystatin and amphotericin. A double-pulse protocol was used for the determination of IC50 values for inactivated state block. Nav 1.7 and Nav 1.5 expressing cells were voltage clamped at −100 mV and −110 mV, respectively. A depolarizing prepulse to −10 mV (Nav 1.7) or −30 mV (Nav 1.5) for 1000 ms followed by a 10 ms repolarization to ˜100 mV (Nav1.7) or −110 mV (Nav 1.5) was given to generate fractional channel inactivation of ˜50%, followed by a 10 ms test pulse to −10 mV (Nav 1.7) or −30 mV (Nav 1.5) to measure peak current in control conditions and after compound addition. The following recording solutions were used (mM). External: 150 NaCl, 2 CaCl2, 5 KCl, 1 Mg Cl2, 10 HEPES, 12 Dextrose; internal: 120 CsF, 30 CsCl, 10 EGTA, 5 HEPES, 5 NaF, 2 MgCl2.
(§3) For all electrophysiology experiments, offline analysis was used to determine percent inhibition as a function of drug concentration. IC50 values were determined by fitting to the Hill equation.
(§4) The various compounds in Examples 1 through 4 and Tables 1 through 3 exemplified above were assayed for activity and selectivity using the foregoing IonWorks® technique. The results are reported in the following paragraph in a format expressing the identification of the compound with reference Example and compound (e.g. Ex 1-9 is Example 1, compound 9) followed by the observed potency in nM and the ratio of Nav1.7 potency: Nav1.5 potency as described here. Thus, Ex1-9: 1.7=65/ratio=641 identifies compound Example 1, compound 9 as having 65 nM potency for the Nav 1.7 sodium ion channel (as measured by IonWorks®) and a ratio of 641 Nav 1.7: Nav 1.5 potency, determined by IonWorks® measurement.

[2] = target: T2, human Nav 1.7 channels stably expressed in HEK 293 cells (Homo sapiens, UniProt Q15858); assay: IonWorks Quattro automated patch-clamp, inactivated state block of Nav 1.7; type: cell-based; conditions: double-pulse protocol, HEK 293 cells held at -100 mV, read-out: potency for the Nav 1.7 sodium ion channel (IC50, IonWorks)
T2 construct: expressed in transfected cells; host or cells: HEK 293
T2 sequence (Q15858 whole entry): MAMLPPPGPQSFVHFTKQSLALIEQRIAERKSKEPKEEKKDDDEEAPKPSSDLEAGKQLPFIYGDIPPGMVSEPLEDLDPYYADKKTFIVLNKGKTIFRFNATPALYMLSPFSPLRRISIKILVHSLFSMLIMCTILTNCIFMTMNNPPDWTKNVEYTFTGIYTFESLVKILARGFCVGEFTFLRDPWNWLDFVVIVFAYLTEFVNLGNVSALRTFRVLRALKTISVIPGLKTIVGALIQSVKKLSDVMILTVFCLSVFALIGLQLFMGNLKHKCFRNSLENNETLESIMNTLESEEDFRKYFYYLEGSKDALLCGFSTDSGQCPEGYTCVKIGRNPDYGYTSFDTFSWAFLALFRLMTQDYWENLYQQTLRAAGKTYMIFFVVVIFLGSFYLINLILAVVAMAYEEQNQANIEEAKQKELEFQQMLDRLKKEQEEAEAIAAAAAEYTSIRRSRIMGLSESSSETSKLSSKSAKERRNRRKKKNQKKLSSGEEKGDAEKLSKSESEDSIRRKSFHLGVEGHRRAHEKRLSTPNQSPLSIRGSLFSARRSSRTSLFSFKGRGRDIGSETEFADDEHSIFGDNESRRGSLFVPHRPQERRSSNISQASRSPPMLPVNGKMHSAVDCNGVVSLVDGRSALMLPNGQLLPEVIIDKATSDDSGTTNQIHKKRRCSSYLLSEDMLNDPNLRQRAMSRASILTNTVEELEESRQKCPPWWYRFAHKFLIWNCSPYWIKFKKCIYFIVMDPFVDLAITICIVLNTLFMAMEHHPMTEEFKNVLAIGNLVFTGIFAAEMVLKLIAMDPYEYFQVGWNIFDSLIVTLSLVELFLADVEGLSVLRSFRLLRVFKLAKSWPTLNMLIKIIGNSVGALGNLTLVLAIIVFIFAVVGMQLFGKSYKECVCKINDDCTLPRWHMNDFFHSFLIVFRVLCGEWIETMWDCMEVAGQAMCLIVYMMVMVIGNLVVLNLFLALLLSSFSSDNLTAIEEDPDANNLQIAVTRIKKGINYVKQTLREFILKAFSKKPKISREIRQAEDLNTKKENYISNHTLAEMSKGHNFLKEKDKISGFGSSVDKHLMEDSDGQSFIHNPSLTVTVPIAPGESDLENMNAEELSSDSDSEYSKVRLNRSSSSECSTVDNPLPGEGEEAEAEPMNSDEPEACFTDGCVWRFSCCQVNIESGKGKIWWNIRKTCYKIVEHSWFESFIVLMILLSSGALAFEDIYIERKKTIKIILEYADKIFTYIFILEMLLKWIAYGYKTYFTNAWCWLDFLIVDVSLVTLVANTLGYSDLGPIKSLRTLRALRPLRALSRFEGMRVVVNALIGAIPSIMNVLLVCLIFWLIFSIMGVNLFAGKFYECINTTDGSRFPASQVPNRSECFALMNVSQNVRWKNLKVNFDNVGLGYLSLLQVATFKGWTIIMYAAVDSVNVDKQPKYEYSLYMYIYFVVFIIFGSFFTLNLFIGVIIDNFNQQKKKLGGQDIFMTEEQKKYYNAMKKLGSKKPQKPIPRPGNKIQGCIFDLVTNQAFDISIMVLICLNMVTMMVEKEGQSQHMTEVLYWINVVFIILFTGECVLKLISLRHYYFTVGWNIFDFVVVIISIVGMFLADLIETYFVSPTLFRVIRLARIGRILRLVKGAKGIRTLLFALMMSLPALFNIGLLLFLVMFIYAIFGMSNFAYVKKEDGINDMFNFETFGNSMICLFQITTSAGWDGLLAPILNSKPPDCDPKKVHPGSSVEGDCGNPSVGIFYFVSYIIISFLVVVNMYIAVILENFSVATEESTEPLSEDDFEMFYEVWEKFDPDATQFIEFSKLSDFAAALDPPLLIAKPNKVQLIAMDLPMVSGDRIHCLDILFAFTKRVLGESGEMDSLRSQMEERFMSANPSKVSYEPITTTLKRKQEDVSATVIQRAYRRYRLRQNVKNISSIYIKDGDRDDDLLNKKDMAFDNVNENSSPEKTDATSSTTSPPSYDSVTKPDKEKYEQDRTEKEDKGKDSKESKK
Description: as §1, §2, §3, §4

Row | Compound | IC50 [2] | ratio of Nav 1.7 : Nav 1.5 potency (IonWorks) [1]
1 | O=S(=O)(Nc1nccs1)c1cc(Cl)c(NCCCCN2C[C@H]3CNCC[C@H]3C2)cc1F [Ex 1-23, 5-chloro-2-fluoro-4-({4-[(3aR,7aR)-octahydro-2H-pyrrolo[3,4-c]pyridin-2-yl]butyl}amino)-N-1,3-thiazol-2-ylbenzenesulfonamide] | 43 nM | > 770
2 | O=S(=O)(Nc1nccs1)c1cc(Cl)c(NCCCCNC2CNCC(c3ccccc3)C2)cc1F (stereo not drawn) [Ex 1-31, 5-chloro-2-fluoro-4-({4-[(5-phenylpiperidin-3-yl)amino]butyl}amino)-N-1,3-thiazol-2-ylbenzenesulfonamide] | 37 nM | > 890
3 | COc1cccc(CC2(CNCCCCNc3cc(F)c(S(=O)(=O)Nc4nccs4)cc3Cl)CCCN2)c1 (stereo not drawn) [Ex 1-34, 5-chloro-2-fluoro-4-{[4-({[2-(3-methoxy-benzyl)-pyrrolidin-2-yl]methyl}-amino)-butyl]amino}-N-1,3-thiazol-2-yl-benzenesulfonamide] | 64 nM | > 510
4 | N[C@@H]1CCCN(CCCCNc2cc(F)c(S(=O)(=O)Nc3nccs3)cc2Cl)C1 [Ex 1-35, 4-({4-[(3R)-3-aminopiperidin-1-yl]butyl}amino)-5-chloro-2-fluoro-N-1,3-thiazol-2-ylbenzenesulfonamide] | 190 nM | > 170
5 | N[C@H]1CCCN(CCCCNc2cc(F)c(S(=O)(=O)Nc3nccs3)cc2Cl)C1 [Ex 1-37, 4-({4-[(3S)-3-aminopiperidin-1-yl]butyl}amino)-5-chloro-2-fluoro-N-1,3-thiazol-2-ylbenzenesulfonamide] | 97 nM | > 340
6 | O=S(=O)(Nc1nccs1)c1cc(Cl)c(NCCCCN2CCCC3(CCCN3)C2)cc1F (stereo not drawn) [Ex 1-39, 5-chloro-4-{[4-(1,7-diazaspiro[4.5]dec-7-yl)butyl]amino}-2-fluoro-N-1,3-thiazol-2-ylbenzenesulfonamide] | 130 nM | > 250
7 | NC[C@H]1CCCN1CCCCNc1cc(F)c(S(=O)(=O)Nc2nccs2)cc1Cl [Ex 1-41, 4-({4-[(2R)-2-(aminomethyl)pyrrolidin-1-yl]butyl}amino)-5-chloro-2-fluoro-N-1,3-thiazol-2-ylbenzenesulfonamide] | 48 nM | > 690

These reach a lower IC50 [2]. Values come first.

Row | IC50 [2] | Compound | ratio of Nav 1.7 : Nav 1.5 potency (IonWorks) [1]
8 | 17 nM | O=S(=O)(Nc1nccs1)c1cc(Cl)c(NCCCCNC2C[C@@H]3C[C@H]2CN3)cc1F (stereo partly drawn) [Ex 1-24, 4-({4-[(1S,4S)-2-azabicyclo[2.2.1]hept-5-ylamino]butyl}amino)-5-chloro-2-fluoro-N-1,3-thiazol-2-ylbenzenesulfonamide] | > 1940
9 | 21 nM | O=S(=O)(Nc1nccs1)c1cc(Cl)c(NCCCCN[C@@H]2[C@H]3CC[C@@H]2NC3)cc1F [Ex 1-25, 4-({4-[(1S,4S,7R)-2-azabicyclo[2.2.1]hept-7-ylamino]butyl}amino)-5-chloro-2-fluoro-N-1,3-thiazol-2-ylbenzenesulfonamide] | > 1590
10 | 18 nM | N[C@@H]1CCN(CCCCNc2cc(F)c(S(=O)(=O)Nc3nccs3)cc2Cl)C1 [Ex 1-36, 4-({4-[(3R)-3-aminopyrrolidin-1-yl]butyl}amino)-5-chloro-2-fluoro-N-1,3-thiazol-2-ylbenzenesulfonamide] | > 1830
11 | 22 nM | NCC1CCN(CCCCNc2cc(F)c(S(=O)(=O)Nc3nccs3)cc2Cl)C1 (stereo not drawn) [Ex 1-47, 4-({4-[3-(aminomethyl)pyrrolidin-1-yl]butyl}amino)-5-chloro-2-fluoro-N-1,3-thiazol-2-ylbenzenesulfonamide] | > 1500
12 | 23 nM | O=S(=O)(Nc1nccs1)c1cc(Cl)c(NCCCCN2CCC3CNCC3C2)cc1F (stereo not drawn) [Ex 1-48, 5-chloro-2-fluoro-4-{[4-(octahydro-5H-pyrrolo[3,4-c]pyridin-5-yl)butyl]amino}-N-1,3-thiazol-2-ylbenzenesulfonamide] | > 1434
